# Data taken from patent US8420777B2, “Compounds that inhibit Hsp90 protein-protein interactions with IAP proteins” (University of Massachusetts, priority 2004, dated 2013).
# How the values were obtained:
# [1] = test system: telomerase; assay: TRAP assay on Hsp90 immunoprecipitates; assay type: cell-based; settings: PC3 cells treated before immunoprecipitation
# Experimental: Survivin peptide treated PC3 cells were also tested for telomerase activity, which requires Hsp90 (Holt et al., Genes Dev., 13:817-26 (1999)). Cells were treated as in above, immunoprecipitated with an antibody to Hsp90, and telomerase activity was determined by TRAP assay (Kim and Wu, Nucleic Acids Res., 25:2595-7 (1997)) of the immunoprecipitates. Telomerase activity is indicated by a ladder of telomere products.
# [2] = test system: HCT116 colorectal cancer cells (p53+/+ or p53-/-); assay: Multiparametric flow cytometry of caspase activity and membrane integrity; assay type: cell-based; design: dose or concentration left out as unconfirmed; settings: 24 hours, p53+/+ versus p53-/-
# Experimental: (§1) For multiparametric analysis of caspase-dependent cell death and loss of plasma membrane integrity, HeLa, MCF-7, or genetically engineered HCT116 cells (obtained from ATCC) were loaded with increasing concentrations of cell permeable control scrambled peptide or the Survivin peptide, harvested after culturing for 24 hours at 37° C., and analyzed for cell viability (propidium iodide, red channel) and active caspase-3 activity (CaspaTag™ from Intergen, Purchase, N.Y., green channel) by flow cytometry.
# In these experiments, HCT116 colorectal cancer cells carrying wild type p53 (p53^+/+) or homozygously inactivated p53 (p53^−/−) (Bunz et al., Science, 282:1497-1501 (1998))) were incubated with […] of cell permeable Control (SEQ ID NO:25) or Survivin (SEQ ID NO:19) cell permeable peptide, harvested after 24 hours and analyzed by multiparametric flow cytometry of induction of caspase activity and loss of cell membrane integrity.
# [3] = test system: HeLa cells; assay: Stability of Hsp90 client proteins and caspase-3 proform, Western blot; assay type: cell-based, Human; settings: increasing concentrations, 24 hours
# Experimental: To determine whether intracellular loading of the Survivin cell permeable peptide reproduced the effect of mAb 8E2 that disrupts the Survivin-Hsp90 interaction in destabilizing Survivin levels in vivo (FIG. 8), HeLa cells were loaded with the indicated increasing concentrations of cell permeable control (SEQ ID NO:25) or Survivin (SEQ ID NO:19) cell permeable peptide, harvested after 24 hours, and analyzed for stability of Hsp90 client proteins, Survivin and Akt. Polyclonal antibody to Akt was obtained from Cell Signaling Technology (Cat. No. 9272).
# [4] = test system: DU145, PC3, HeLa tumor cell lines; assay: MTT colorimetric viability assay, tumor cell lines; assay type: cell-based; settings: increasing concentrations, 24 hours
# Experimental: FIGS. 22A and 22B compares the effect of P31 (SEQ ID NO:19) or P33 (SEQ ID NO:25) on apoptosis of tumor cell lines (FIG. 22A) and normal cell lines (FIG. 22B). The following tumor cell lines DU145 (prostate cancer, circles), PC3 (prostate cancer, triangles), or HeLa (cervical carcinoma, squares) were treated with the indicated increasing concentrations of P31 peptide (solid symbols) or control P33 peptide (open symbols), harvested after 24 hours, and analyzed for cell viability using an MTT colorimetric assay. For normal cell types (right panel), HFF (human foreskin fibroblasts, squares), HGF (human fibroblasts, triangles) or WS-1 (human epithelial cells, circles) were treated with P31 (solid symbols) or control scrambled peptide P33, harvested after 24 hours and analyzed for overall cell viability by MTT colorimetric assay. All cell lines were from ATCC.
# [5] = test system: HeLa cells; assay: Annexin V labeling and propidium iodide multiparametric flow cytometry; assay type: cell-based, Human; settings: increasing concentrations, eight hour incubation, 37° C.
# Experimental: HeLa cell cultures were treated with the indicated increasing concentrations of P31 (Survivin) or P33 (Control; SEQ ID NO:25) peptides, harvested after an eight hour incubation at 37° C., and analyzed for multiparametric flow cytometry of Annexin V labeling (X-axis, a marker of apoptosis) and propidium iodide staining (Y-axis, a marker of cell death).
# [6] = test system: PC3 cells; assay: Immunoblotting of Hsp90 client proteins; assay type: cell-based; settings: 75 and 150 μM, 8 hours
# Experimental: Survivin affects the stability and function of Hsp90 client proteins in tumor cells. PC3 cells were untreated or exposed to 75 and 150 μM concentrations of the survivin peptide (SEQ ID NO:19) (or control scrambled peptide; SEQ ID NO:25) for 8 hours and processed for immunoblotting against the Hsp90 client proteins survivin, AKT, and CDK-6. […] Conversely, the levels of Hsp90, Hsp70, and PCNA were not affected (FIG. 26A).
# [7] = test system: breast carcinoma MCF-7 cells; assay: Multiparametric flow cytometry of caspase activity and membrane integrity; assay type: cell-based; settings: MCF-7 (wild type p53), 24 hours
# Experimental: as §1
# Experiments were performed as in Example 13, except that breast carcinoma MCF-7 cells (wild type p53) were analyzed by multiparametric flow cytometry of induction of caspase activity and loss of cell membrane integrity after intracellular loading with cell permeable Control (SEQ ID NO:25) or Survivin (SEQ ID NO:19) cell permeable peptide.
# [8] = test system: HL-60 cells; assay: Cell killing by trypan blue exclusion; assay type: cell-based
# Experimental: The expression and function of the survivin-Hsp90 pathway in acute myelogenous leukemia (AML) cell lines was analyzed. Survivin was abundantly expressed in four AML cell lines, U937, K-562, THP-1 and HL-60, by Western blotting (FIG. 29A).
# [9] = test system: HeLa cells; assay: Multiparametric flow cytometry of caspase activity and membrane integrity; assay type: cell-based, Human; settings: increasing concentrations, 24 hours
# Experimental: as §1
# Cells were harvested after 24 hours of incubation with peptide and simultaneously analyzed for caspase activity by DEVDase activity (X-axis, green fluorescence) and cell membrane integrity by propidium iodide staining (Y-axis, red fluorescence). Cells in the upper right quadrant correspond to the population with elevated caspase activity and loss of cell membrane integrity (apoptotic).
# [10] = test system: U937, K562, HL60, THP1 AML cell lines; assay: MTT cell viability in AML cell lines; assay type: cell-based, human
# Experimental: FIG. 30 is a graph depicting killing activity of survivin K79-G83 in AML cells. The indicated human AML cell lines (U937, K562, HL60, and THP1) were incubated with scrambled (SEQ ID NO:28) or Survivin (SEQ ID NO:20) peptides and evaluated for cell viability by MTT.
# The effect of the K79-G83 Survivin peptide was characterized in more detail for anti-tumor activity in AML. The K79-L87 (SEQ ID NO:19) and K79-G83 peptides (SEQ ID NO:20) were incubated with AML cells, and cell viability was measured using MTT.
# [11] = target: T1, survivin-Hsp90 (Homo sapiens, UniProt P07900, S63T); assay: ELISA inhibition of recombinant survivin binding to Hsp90
# T1 construct: GST-Hsp90 (amino acids 1-732); GST (N); made in house; host or cells: E. coli
# Source text: FIG. 31 is a graph depicting Hsp90 binding by Survivin peptides, measured by ELISA. Data are the mean±S.D. of two independent experiments.
sequence,measurement,setting,value
RQIKIWFQNRRMKWKKKHSSGCAFL (Synthetically generated peptide) [P31],telomerase activity,[1],abrogated telomerase activity
same,accumulation of cells with high caspase activity and loss of plasma membrane integrity,[2],indistinguishable between p53^+/+ and p53^−/− HCT116 cells
same,levels of Survivin and Akt,[3],low levels of Survivin and Akt
same,cell death in cancer cell lines (MTT),[4],effectively induced cell death in all three cancer cell lines
same,induction of apoptosis (Annexin V / propidium iodide),[5],induced apoptosis in a dose-dependent manner
same,"Hsp90 client proteins (survivin, Akt, CDK-4, CDK-6)",[6],caused disappearance of multiple Hsp90 client proteins
same,"levels of Hsp90, Hsp70, and PCNA",[6],not affected
same,caspase-dependent apoptosis,[7],induces apoptosis
same,cell killing (trypan blue exclusion),[8],dose-dependent and complete cell killing
same,cell death (caspase activity and loss of plasma membrane integrity),[9],induces cell death more efficiently than scrambled control peptide
same,"cell viability (MTT), killing of AML cell lines",[10],efficiently killed all AML cell lines tested
same,inhibition of binding of recombinant survivin to Hsp90,[11],inhibited the binding of recombinant survivin to Hsp90 in a dose-dependent manner
